# Measured values taken from ChEMBL document CHEMBL5465560, “Selectivity Literature for EUbOPEN Chemogenomic Library” (2024).
# How the values were obtained:
# [1] = target: T1, Mitogen-activated protein kinase kinase kinase 7 (Homo sapiens) (UniProt O43318); test: Selectivity interaction (KinomeScan (DiscoverX)) EUB0001049a MAP3K7; conditions: at 1 µM
# T1 sequence (whole entry): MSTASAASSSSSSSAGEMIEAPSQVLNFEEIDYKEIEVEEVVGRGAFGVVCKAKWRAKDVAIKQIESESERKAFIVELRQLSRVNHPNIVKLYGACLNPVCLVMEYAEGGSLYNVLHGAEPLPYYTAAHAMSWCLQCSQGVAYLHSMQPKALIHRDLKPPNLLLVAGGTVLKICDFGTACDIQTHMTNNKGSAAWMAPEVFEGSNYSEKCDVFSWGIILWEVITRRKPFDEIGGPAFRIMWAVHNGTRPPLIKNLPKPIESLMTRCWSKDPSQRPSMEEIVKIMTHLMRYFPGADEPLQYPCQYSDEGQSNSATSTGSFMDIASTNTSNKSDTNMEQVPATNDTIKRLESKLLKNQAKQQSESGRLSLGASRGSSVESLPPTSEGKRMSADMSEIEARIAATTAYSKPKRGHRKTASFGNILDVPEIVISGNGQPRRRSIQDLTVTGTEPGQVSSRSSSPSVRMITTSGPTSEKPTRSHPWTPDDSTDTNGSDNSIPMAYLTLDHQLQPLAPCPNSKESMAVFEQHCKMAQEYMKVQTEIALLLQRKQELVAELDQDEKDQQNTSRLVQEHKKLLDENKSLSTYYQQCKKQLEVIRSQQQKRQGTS
# [2] = target: T2, Tyrosine-protein kinase JAK3 (Homo sapiens) (UniProt P52333); test: Selectivity interaction (KinomeScan (DiscoverX)) EUB0000666a JAK3; conditions: at 10 µM
# T2 sequence (whole entry): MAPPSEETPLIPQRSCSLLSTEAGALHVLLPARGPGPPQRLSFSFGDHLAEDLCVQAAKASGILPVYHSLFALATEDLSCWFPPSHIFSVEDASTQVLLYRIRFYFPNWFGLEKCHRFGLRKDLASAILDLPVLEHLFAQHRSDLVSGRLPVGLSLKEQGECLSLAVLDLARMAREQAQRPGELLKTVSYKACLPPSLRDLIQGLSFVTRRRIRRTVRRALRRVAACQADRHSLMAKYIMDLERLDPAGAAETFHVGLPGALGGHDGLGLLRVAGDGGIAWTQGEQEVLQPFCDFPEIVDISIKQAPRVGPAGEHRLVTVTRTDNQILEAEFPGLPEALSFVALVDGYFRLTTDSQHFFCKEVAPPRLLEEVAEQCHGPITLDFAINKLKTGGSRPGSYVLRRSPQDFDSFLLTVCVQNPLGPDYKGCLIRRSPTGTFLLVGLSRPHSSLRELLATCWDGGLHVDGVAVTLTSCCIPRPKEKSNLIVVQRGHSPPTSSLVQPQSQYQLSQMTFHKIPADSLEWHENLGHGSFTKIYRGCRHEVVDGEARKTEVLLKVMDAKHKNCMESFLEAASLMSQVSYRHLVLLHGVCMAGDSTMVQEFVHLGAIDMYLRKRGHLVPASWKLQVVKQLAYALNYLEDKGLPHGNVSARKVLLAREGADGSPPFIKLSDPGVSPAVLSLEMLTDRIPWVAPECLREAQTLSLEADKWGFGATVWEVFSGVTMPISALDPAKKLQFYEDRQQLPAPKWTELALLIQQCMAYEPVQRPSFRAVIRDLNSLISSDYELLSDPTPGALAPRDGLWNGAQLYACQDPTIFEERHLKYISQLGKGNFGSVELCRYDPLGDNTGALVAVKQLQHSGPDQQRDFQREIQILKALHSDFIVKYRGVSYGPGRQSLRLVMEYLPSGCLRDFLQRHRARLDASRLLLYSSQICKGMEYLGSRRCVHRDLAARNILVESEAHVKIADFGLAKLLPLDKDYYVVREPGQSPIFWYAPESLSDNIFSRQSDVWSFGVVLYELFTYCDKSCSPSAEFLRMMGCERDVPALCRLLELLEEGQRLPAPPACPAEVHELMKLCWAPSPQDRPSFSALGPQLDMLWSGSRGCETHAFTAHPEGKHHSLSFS
# [3] = Selectivity interaction (ActivX KiNativ screen (kinase selectivity in THP-1 cell lysates)) EUB0000639a STLK6; conditions: Selectivity number of off-targets 0; Selectivity number of targets 283; Source Knowledge https://pubmed.ncbi.nlm.nih.gov/28498658/; at 0.04 µM
# [4] = target: T3, Tyrosine-protein kinase Tec (Homo sapiens) (UniProt P42680); test: Selectivity interaction (KinomeScan (DiscoverX)) EUB0000045b TEC
# T3 sequence (whole entry): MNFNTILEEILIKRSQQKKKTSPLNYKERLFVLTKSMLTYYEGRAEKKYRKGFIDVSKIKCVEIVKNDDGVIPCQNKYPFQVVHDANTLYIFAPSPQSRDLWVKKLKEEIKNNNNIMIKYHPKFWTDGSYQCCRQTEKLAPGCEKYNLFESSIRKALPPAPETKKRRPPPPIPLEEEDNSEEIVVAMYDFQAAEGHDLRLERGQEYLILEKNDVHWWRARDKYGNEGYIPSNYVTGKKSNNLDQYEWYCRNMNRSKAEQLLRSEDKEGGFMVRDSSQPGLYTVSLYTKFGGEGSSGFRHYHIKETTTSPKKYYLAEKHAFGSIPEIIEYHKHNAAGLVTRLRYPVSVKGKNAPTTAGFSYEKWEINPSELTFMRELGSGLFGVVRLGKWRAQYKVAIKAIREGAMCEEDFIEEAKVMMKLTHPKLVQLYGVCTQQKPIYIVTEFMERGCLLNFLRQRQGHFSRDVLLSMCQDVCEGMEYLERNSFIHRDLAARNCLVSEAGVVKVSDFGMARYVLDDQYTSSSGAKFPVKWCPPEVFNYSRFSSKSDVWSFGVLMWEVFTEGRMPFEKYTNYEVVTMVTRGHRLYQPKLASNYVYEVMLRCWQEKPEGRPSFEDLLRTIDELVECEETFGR
# [5] = target: T4, Serine/threonine-protein kinase ULK3 (Homo sapiens) (UniProt Q6PHR2); test: Selectivity interaction (LanthaScreen Eu Kinase Binding Assay) EUB0001632a ULK3; conditions: at 10 µM
# T4 sequence (whole entry): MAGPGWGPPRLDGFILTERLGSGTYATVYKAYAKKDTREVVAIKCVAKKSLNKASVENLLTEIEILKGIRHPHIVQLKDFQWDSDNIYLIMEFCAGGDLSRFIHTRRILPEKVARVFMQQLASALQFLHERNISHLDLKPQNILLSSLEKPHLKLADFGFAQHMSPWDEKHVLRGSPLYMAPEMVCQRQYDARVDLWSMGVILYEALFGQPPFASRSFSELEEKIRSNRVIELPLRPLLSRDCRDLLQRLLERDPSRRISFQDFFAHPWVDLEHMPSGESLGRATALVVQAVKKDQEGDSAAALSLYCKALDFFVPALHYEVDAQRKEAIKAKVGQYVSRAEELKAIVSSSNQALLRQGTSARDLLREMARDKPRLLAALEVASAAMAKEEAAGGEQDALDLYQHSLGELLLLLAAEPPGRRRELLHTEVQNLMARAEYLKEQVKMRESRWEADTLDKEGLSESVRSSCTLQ
structure (smiles),measurement,setting,value
COc1cc(Nc2nc(C)cc(-c3cnn4nc(OC)ccc34)n2)cc(C(F)(F)F)c1,% of control,[1],73%
O=C(NOC[C@H](O)CO)c1ccc(F)c(F)c1Nc1ccc(I)cc1F,% of control,[2],100%
CC[C@@H]1[C@H](F)C(=O)N[C@@H]1COc1nccc2cc(C(N)=O)c(OC)cc12 [ZIMLOVISERTIB],% of inhibition,[3],16%
C=CC(=O)Nc1cc(-n2c(=O)ccc3cnc4ccc(-c5ccc(NS(C)(=O)=O)cc5)cc4c32)ccc1C,% of control,[4]; at 1 µM,27%
same,% of control,[4]; at 10 µM,4.2%
Cn1cc(-n2cnc3c(NCc4nc5cc(Cl)c(Cl)cc5[nH]4)nc(N4CCOCC4)nc32)cn1,% of inhibition,[5],-290%
